Reference: ChEMBL document CHEMBL3045175, “Synthesis and Neuromuscular Blocking Activity of 16-Piperidino Epiandrosterone Derivatives” (Med Chem Res, 2005)
Active and inactive are the calls of the source. The rule behind the calls is not given here.

What was measured:
[1] = species on record: Gallus gallus; assay: Binding affinity to acetylcholine receptor in isolated Gallus gallus (chicken) biventar cervicis muscle assessed as reduction of twitch response to carbachol after washout
[2] = (§1) Inhibition of Electrophorus electricus (electric eel) acetylcholinesterase
[3] = test system: Electrophorus electricus; assay: as §1
[4] = species on record: Gallus gallus; assay: Binding affinity to acetylcholine receptor in isolated Gallus gallus (chicken) biventar cervicis muscle assessed as reduction of twitch response to carbachol in presence of neostigmine
[5] = species on record: Gallus gallus; assay: Binding affinity to acetylcholine receptor in isolated Gallus gallus (chicken) biventar cervicis muscle assessed as reduction of twitch response to carbachol at 1 uM up to 10 min
[6] = species on record: Gallus gallus; assay: Binding affinity to acetylcholine receptor in isolated Gallus gallus (chicken) biventar cervicis muscle assessed as reduction of twitch response to carbachol
[7] = species on record: Gallus gallus; assay: Binding affinity to acetylcholine receptor in isolated Gallus gallus (chicken) biventar cervicis muscle assessed as reduction of twitch response to carbachol at 5 uM up to 10 min

Structure (SMILES)	Activity [1]	Ki [2] [nM]	inhibition [3]	Activity [4]	Activity [5]	K [6] [µM]	Activity [7]
CC(=O)O[C@H]1[C@@H](N2CCCCC2)C[C@H]2[C@@H]3CC[C@H]4C[C@@H](N5CCCC5)CC[C@]4(C)[C@H]3CC[C@@]21C	inactive	980	Dose-dependent effect	inactive	Active	0.2	–
C[C@]12CC[C@H](N3CCCC3)C[C@@H]1CC[C@@H]1[C@@H]2CC[C@]2(C)[C@@H](O)[C@@H](N3CCCCC3)C[C@@H]12	inactive	620	Dose-dependent effect	inactive	–	0.9	Active
